Values of other authors in patent US20250134887A1, “METHODS OF TREATING PROSTATE CANCER” (AstraZeneca AB, priority 2022, published 2025).

Test system: patients with mCRPC harboring BRCA1, BRCA2 and ATM mutations
Conditions: disease had progressed on NHA; vs. enzalutamide or abiraterone; cited from earlier work

In the case of `O=C(c1cc(Cc2n[nH]c(=O)c3ccccc23)ccc1F)N1CCN(C(=O)C2CC2)CC1` [olaparib, 4-[(3-{[4-(cyclopropane-carbonyl)piperazine-1-yl]carbonyl}-4-fluorophenyl)methyl]-2H-phthalazin-1-one], the “imaging-based progression-free survival and overall survival” value is given as “imaging-based progression-free survival and overall survival benefits”.
